Experimental data taken from the NIST ThermoML archive (doi:10.1021/je100362p).
± gives the expanded uncertainty stated by the source.

Test: xn = mol fraction of the nth substance listed
Conditions: 101 kPa, Liquid; for speed of sound: Sing-around technique in a fixed-path interferometer

Cc1ccccc1O [2-methylphenol] + CCCCCCCCCCO
Conditions | mass density, 298.15 K [kg/m3] | mass density, 303.15 K [kg/m3] | speed of sound, 298.15 K [m/s] | speed of sound, 303.15 K [m/s] | speed of sound, 308.15 K [m/s]
x1 = 0.0861 | 837.502 ± 0.53 | 834.018 ± 0.54 | 1385.1 ± 1.1 | 1368 ± 1.1 | 1351.1 ± 1.1
x1 = 0.1516 | 846.353 ± 0.51 | 842.829 ± 0.52 | 1389.3 ± 1.1 | 1372.1 ± 1.1 | 1355.2 ± 1.1
x1 = 0.2077 | 854.319 ± 0.49 | 850.761 ± 0.5 | 1393 ± 1.1 | 1375.7 ± 1.1 | 1358.8 ± 1.1
x1 = 0.2717 | 863.895 ± 0.47 | 860.293 ± 0.48 | 1397.2 ± 1.1 | 1379.9 ± 1.1 | 1363.1 ± 1
x1 = 0.334 | 873.784 ± 0.45 | 870.135 ± 0.46 | 1401.6 ± 1.1 | 1384.3 ± 1.1 | 1367.4 ± 1
x1 = 0.4103 | 886.741 ± 0.43 | 883.035 ± 0.43 | 1407.6 ± 1.1 | 1390.3 ± 1.1 | 1373.2 ± 1
x1 = 0.4797 | 899.465 ± 0.4 | 895.693 ± 0.41 | 1413.7 ± 1.1 | 1396.5 ± 1 | 1379.2 ± 1
x1 = 0.5545 | 914.345 ± 0.37 | 910.475 ± 0.38 | 1421.3 ± 1.1 | 1404 ± 1 | –
x1 = 0.6165 | 927.694 ± 0.34 | 923.735 ± 0.35 | 1428.4 ± 1.1 | 1411.1 ± 1 | –
x1 = 0.6875 | 944.316 ± 0.31 | 940.209 ± 0.32 | 1437.8 ± 1.1 | 1420.7 ± 1 | –
x1 = 0.7538 | 961.343 ± 0.28 | 957.079 ± 0.28 | 1448.2 ± 1.1 | 1431 ± 1 | –
x1 = 0.8245 | 981.399 ± 0.24 | 976.894 ± 0.24 | 1461.2 ± 1.1 | 1444 ± 1 | –
x1 = 0.8811 | 999.121 ± 0.2 | 994.379 ± 0.21 | 1473.5 ± 1.1 | 1456.2 ± 1 | –
x1 = 0.941 | 1019.75 ± 0.24 | 1014.71 ± 0.23 | 1488.8 ± 1.1 | 1471.6 ± 1.1 | –
x1 = 1 | 1042.32 ± 0.27 | 1036.94 ± 0.26 | 1504.6 ± 1.1 | 1487.4 ± 1.1 | –
